In brackets after ≈: the same amount, converted by molar mass.

The first series deals with Cryptococcus neoformans. In words: Antifungal activity against Cryptococcus neoformans H99 assessed as reduction in fungal growth incubated for 72 hrs by broth microdilution method.
Conditions: not given
It is filed as functional. (In general: Broth dilution looks for growth in wells or tubes with falling amounts of substance.)
`O=C(NCCCN1CCOCC1)c1cccc(-n2nc(-c3ccccc3O)nc2-c2ccccc2O)c1`: the MIC (commonly the lowest concentration that inhibits growth of the organism) turned out to be 2 µg/mL (≈ 4 µM).
Regarding `COCCNC(=O)c1ccc(-n2nc(-c3ccccc3O)nc2-c2ccccc2O)cc1`, the MIC stood at 0.25 µg/mL (≈ 0.581 µM).
`CC(C)(O)CCNC(=O)c1ccc(-n2nc(-c3ccccc3O)nc2-c2ccccc2O)cc1`: the MIC worked out at 1 µg/mL (≈ 2.18 µM).
Turning to `O=C(NCc1cccnc1)c1ccc(-n2nc(-c3ccccc3O)nc2-c2ccccc2O)cc1`, the MIC stood at 8 µg/mL (≈ 17.3 µM).
For the compound `CC(C)(O)CNC(=O)c1ccc(-n2nc(-c3ccccc3O)nc2-c2ccccc2O)cc1`, the minimum inhibitory concentration (MIC) was found to be 2 µg/mL (≈ 4.5 µM).
Regarding `O=C(NCc1ncccn1)c1ccc(-n2nc(-c3ccccc3O)nc2-c2ccccc2O)cc1`, the MIC came out at 4 µg/mL (≈ 8.61 µM).
`O=C(NCC1CCS(=O)(=O)C1)c1ccc(-n2nc(-c3ccccc3O)nc2-c2ccccc2O)cc1` (stereo not drawn): the MIC stood at 8 µg/mL (≈ 15.9 µM).
On to `O=C(NC1CCS(=O)(=O)CC1)c1ccc(-n2nc(-c3ccccc3O)nc2-c2ccccc2O)cc1`, for which the MIC is 4 µg/mL (≈ 7.93 µM).
`CN1CCC(CNC(=O)c2ccc(-n3nc(-c4ccccc4O)nc3-c3ccccc3O)cc2)CC1`: the MIC came to 4 µg/mL (≈ 8.27 µM).
As to `O=C(NCCN1CCC(F)(F)CC1)c1ccc(-n2nc(-c3ccccc3O)nc2-c2ccccc2O)cc1`, the MIC is 1 µg/mL (≈ 1.92 µM).
Same read-out and setting: the same measure for `O=C(N[C@@H]1CCOC1)c1ccc(-n2nc(-c3ccccc3O)nc2-c2ccccc2O)cc1`: 4 µg/mL (≈ 9.04 µM).
Consider `CCNC(=O)c1ccc(-n2nc(-c3ccccc3O)nc2-c2ccccc2O)cc1`, for which the MIC was found to be 1 µg/mL (≈ 2.5 µM).
As for `CS(=O)(=O)CCNC(=O)c1ccc(-n2nc(-c3ccccc3O)nc2-c2ccccc2O)cc1`, the minimal inhibitory concentration (MIC) is 1 µg/mL (≈ 2.09 µM).
The same measure, in the same setting: the same measure for `CN1CCN(CCNC(=O)c2ccc(-n3nc(-c4ccccc4O)nc3-c3ccccc3O)cc2)CC1`: 1 µg/mL (≈ 2.01 µM); for `O=C(NCCC1CCOCC1)c1ccc(-n2nc(-c3ccccc3O)nc2-c2ccccc2O)cc1`: 0.25 µg/mL (≈ 0.516 µM).
For `CCCCNC(=O)c1ccc(-n2nc(-c3ccccc3O)nc2-c2ccccc2O)cc1`, the MIC was found to be 4 µg/mL (≈ 9.34 µM).
With `O=C(NCCN1CCOCC1)c1ccc(-n2nc(-c3ccccc3O)nc2-c2ccccc2O)cc1`, the MIC worked out at 0.5 µg/mL (≈ 1.03 µM).
`NC(=O)c1ccc(-n2nc(-c3ccccc3O)nc2-c2ccccc2O)cc1`: the MIC amounted to 4 µg/mL (≈ 10.7 µM).
Consider `O=C(NC1CCS(=O)(=O)C1)c1cccc(-n2nc(-c3ccccc3O)nc2-c2ccccc2O)c1` (stereo not drawn), for which the MIC came to 4 µg/mL (≈ 8.15 µM).
Regarding `C[N+]1(CCNC(=O)c2ccc(-n3nc(-c4ccccc4O)nc3-c3ccccc3O)cc2)CCOCC1.[I-]`, the MIC turned out to be 4 µg/mL.
Regarding `CN1CCCC(CNC(=O)c2ccc(-n3nc(-c4ccccc4O)nc3-c3ccccc3O)cc2)C1` (stereo not drawn), the MIC stood at 0.25 µg/mL (≈ 0.517 µM).
On to `O=C(NCCCC(F)(F)F)c1ccc(-n2nc(-c3ccccc3O)nc2-c2ccccc2O)cc1`, for which the MIC was 8 µg/mL (≈ 16.6 µM).
`O=C(NCCCn1ccnc1)c1ccc(-n2nc(-c3ccccc3O)nc2-c2ccccc2O)cc1`: the MIC was determined as 8 µg/mL (≈ 16.6 µM).
On to `O=C(c1ccc(-n2nc(-c3ccccc3O)nc2-c2ccccc2O)cc1)N1CCOCC1`, for which the MIC turned out to be 4 µg/mL (≈ 9.04 µM).
As for `O=C(NCCN1CCCCC1)c1ccc(-n2nc(-c3ccccc3O)nc2-c2ccccc2O)cc1`, the MIC worked out at 1 µg/mL (≈ 2.07 µM).
Same read-out and setting: for `O=C(NCCCO)c1ccc(-n2nc(-c3ccccc3O)nc2-c2ccccc2O)cc1` the value was 2 µg/mL (≈ 4.65 µM); for `O=C(N[C@H]1CCOC1)c1ccc(-n2nc(-c3ccccc3O)nc2-c2ccccc2O)cc1`, 4 µg/mL (≈ 9.04 µM).
The same measure, in the same setting: for `O=C(NCC(O)c1ccccc1)c1ccc(-n2nc(-c3ccccc3O)nc2-c2ccccc2O)cc1` (stereo not drawn) the value was 4 µg/mL (≈ 8.12 µM); for `O=C(NCc1ccco1)c1ccc(-n2nc(-c3ccccc3O)nc2-c2ccccc2O)cc1`, 4 µg/mL (≈ 8.84 µM).

For the next series, the system named is Candida albicans. In words: Antifungal activity against Candida albicans SC5314 assessed as reduction in fungal growth incubated for 72 hrs by broth microdilution method. The series is classed as functional.
Conditions: not given
Consider `COCCNC(=O)c1ccc(-n2nc(-c3ccccc3O)nc2-c2ccccc2O)cc1`, for which the MIC was determined as 8 µg/mL (≈ 18.6 µM).
Consider `CC(C)(O)CCNC(=O)c1ccc(-n2nc(-c3ccccc3O)nc2-c2ccccc2O)cc1`, for which the MIC was 16 µg/mL (≈ 34.9 µM).
For `O=C(NCCC1CCOCC1)c1ccc(-n2nc(-c3ccccc3O)nc2-c2ccccc2O)cc1`, the MIC is 32 µg/mL (≈ 66 µM).
In the case of `O=C(NCCN1CCOCC1)c1ccc(-n2nc(-c3ccccc3O)nc2-c2ccccc2O)cc1`, the MIC turned out to be 32 µg/mL (≈ 65.9 µM).
`CN1CCCC(CNC(=O)c2ccc(-n3nc(-c4ccccc4O)nc3-c3ccccc3O)cc2)C1` (stereo not drawn): the minimum inhibitory concentration (MIC) was determined as 32 µg/mL (≈ 66.2 µM).

The test system of the next series is Candida parapsilosis. In words: Antifungal activity against Candida parapsilosis ATCC 22019 assessed as reduction in fungal growth incubated for 72 hrs by broth microdilution method. The series is classed as functional. The note with it: Lodderomyces parapsilosis.
Turning to `COCCNC(=O)c1ccc(-n2nc(-c3ccccc3O)nc2-c2ccccc2O)cc1`, the MIC is greater than 64 µg/mL.
Regarding `CC(C)(O)CCNC(=O)c1ccc(-n2nc(-c3ccccc3O)nc2-c2ccccc2O)cc1`, the MIC is greater than 64 µg/mL.
With `O=C(NCCC1CCOCC1)c1ccc(-n2nc(-c3ccccc3O)nc2-c2ccccc2O)cc1`, the MIC was 32 µg/mL (≈ 66 µM).
On to `O=C(NCCN1CCOCC1)c1ccc(-n2nc(-c3ccccc3O)nc2-c2ccccc2O)cc1`, for which the minimum inhibitory concentration (MIC) stood at 64 µg/mL (≈ 132 µM).
`CN1CCCC(CNC(=O)c2ccc(-n3nc(-c4ccccc4O)nc3-c3ccccc3O)cc2)C1` (stereo not drawn): the MIC came to 64 µg/mL (≈ 132 µM).

The test system of a further series is Candida tropicalis. In words: Antifungal activity against Candida tropicalis 2718 assessed as reduction in fungal growth incubated for 72 hrs by broth microdilution method. It is filed as functional.
Conditions: not given
On to `COCCNC(=O)c1ccc(-n2nc(-c3ccccc3O)nc2-c2ccccc2O)cc1`, for which the MIC was found to be 4 µg/mL (≈ 9.29 µM).
For `CC(C)(O)CCNC(=O)c1ccc(-n2nc(-c3ccccc3O)nc2-c2ccccc2O)cc1`, the minimum inhibitory concentration (MIC) was 4 µg/mL (≈ 8.72 µM).
With `O=C(NCCC1CCOCC1)c1ccc(-n2nc(-c3ccccc3O)nc2-c2ccccc2O)cc1`, the MIC is 1 µg/mL (≈ 2.06 µM).
Same read-out and setting: the same measure for `O=C(NCCN1CCOCC1)c1ccc(-n2nc(-c3ccccc3O)nc2-c2ccccc2O)cc1`: 4 µg/mL (≈ 8.24 µM); for `CN1CCCC(CNC(=O)c2ccc(-n3nc(-c4ccccc4O)nc3-c3ccccc3O)cc2)C1` (stereo not drawn): 32 µg/mL (≈ 66.2 µM).

Another series has as its system Nakaseomyces glabratus. In words: Antifungal activity against Candida glabrata 537 assessed as reduction in fungal growth incubated for 72 hrs by broth microdilution method. It is filed as functional.
Conditions: not given
Regarding `COCCNC(=O)c1ccc(-n2nc(-c3ccccc3O)nc2-c2ccccc2O)cc1`, the MIC was less than 0.125 µg/mL.
On the same count and under the same terms, the same measure for `CC(C)(O)CCNC(=O)c1ccc(-n2nc(-c3ccccc3O)nc2-c2ccccc2O)cc1`: less than 0.125 µg/mL; for `O=C(NCCC1CCOCC1)c1ccc(-n2nc(-c3ccccc3O)nc2-c2ccccc2O)cc1`: less than 0.125 µg/mL; for `O=C(NCCN1CCOCC1)c1ccc(-n2nc(-c3ccccc3O)nc2-c2ccccc2O)cc1`: less than 0.125 µg/mL.
On the same count and under the same terms, for `CN1CCCC(CNC(=O)c2ccc(-n3nc(-c4ccccc4O)nc3-c3ccccc3O)cc2)C1` (stereo not drawn) the value was less than 0.125 µg/mL.

The subject of the next series is Pichia kudriavzevii. In words: Antifungal activity against Pichia kudriavzevii 4946 assessed as reduction in fungal growth incubated for 72 hrs by broth microdilution method. The series is classed as functional.
Conditions: not given
Regarding `COCCNC(=O)c1ccc(-n2nc(-c3ccccc3O)nc2-c2ccccc2O)cc1`, the MIC turned out to be 1 µg/mL (≈ 2.32 µM).
Still for that read-out and setting: the same measure for `CC(C)(O)CCNC(=O)c1ccc(-n2nc(-c3ccccc3O)nc2-c2ccccc2O)cc1`: 4 µg/mL (≈ 8.72 µM).
Regarding `O=C(NCCC1CCOCC1)c1ccc(-n2nc(-c3ccccc3O)nc2-c2ccccc2O)cc1`, the MIC worked out at 16 µg/mL (≈ 33 µM).
Same read-out and setting: the same measure for `O=C(NCCN1CCOCC1)c1ccc(-n2nc(-c3ccccc3O)nc2-c2ccccc2O)cc1`: 8 µg/mL (≈ 16.5 µM); for `CN1CCCC(CNC(=O)c2ccc(-n3nc(-c4ccccc4O)nc3-c3ccccc3O)cc2)C1` (stereo not drawn): 16 µg/mL (≈ 33.1 µM).

Another series concerns [Candida] auris. In words: Antifungal activity against Candida auris D12 assessed as reduction in fungal growth incubated for 72 hrs by broth microdilution method. It is filed as functional. The note with it: Candidozyma auris.
In the case of `COCCNC(=O)c1ccc(-n2nc(-c3ccccc3O)nc2-c2ccccc2O)cc1`, the minimal inhibitory concentration (MIC) is greater than 64 µg/mL.
As to `CC(C)(O)CCNC(=O)c1ccc(-n2nc(-c3ccccc3O)nc2-c2ccccc2O)cc1`, the MIC was greater than 64 µg/mL.
Turning to `O=C(NCCC1CCOCC1)c1ccc(-n2nc(-c3ccccc3O)nc2-c2ccccc2O)cc1`, the MIC was greater than 64 µg/mL.
As to `O=C(NCCN1CCOCC1)c1ccc(-n2nc(-c3ccccc3O)nc2-c2ccccc2O)cc1`, the minimal inhibitory concentration (MIC) is greater than 64 µg/mL.
On the same count and under the same terms, for `CN1CCCC(CNC(=O)c2ccc(-n3nc(-c4ccccc4O)nc3-c3ccccc3O)cc2)C1` (stereo not drawn) the value was greater than 64 µg/mL.

The subject of a further series is Cryptococcus neoformans. In words: Potency index, ratio of deferasirox MIC to test compound for antifungal activity against Cryptococcus neoformans H99 incubated for 72 hrs by broth microdilution method.
Conditions: not given
The series is classed as functional.
On to `CC(C)(O)CCNC(=O)c1ccc(-n2nc(-c3ccccc3O)nc2-c2ccccc2O)cc1`, for which the Ratio worked out at 2.

System in a further series: not listed separately
In words: Metabolic stability in mouse liver microsomes assessed as elimination rate constant. It is filed as ADME, Microsome.
Conditions: not given
A general note: Liver microsomes are a subcellular fraction often used to study metabolism.
Consider `Cc1ncc2n1-c1ccc(Cl)cc1C(c1ccccc1F)=NC2` [MIDAZOLAM], for which the k el is 0.00247 s⁻¹.

System in the next series: not listed separately
In words: Metabolic stability in mouse liver microsomes assessed as half life. The series is classed as ADME, Microsome.
Conditions: not given
Take `Cc1ncc2n1-c1ccc(Cl)cc1C(c1ccccc1F)=NC2` [MIDAZOLAM]: the half-life (as a rule, the time in which the quantity being followed falls by half) came to 4.67 min.

System in another series: not listed separately
In words: Metabolic stability in mouse liver microsomes assessed as intrinsic clearance. The series is classed as ADME, Microsome. The settings on record: read-out: CLH.
With `Cc1ncc2n1-c1ccc(Cl)cc1C(c1ccccc1F)=NC2` [MIDAZOLAM], the microsomal CLint came out at 742 µL/min/mg.

The record behind these values is ChEMBL document CHEMBL5528016, “Design, synthesis and evaluation of novel deferasirox derivatives with high antifungal potency in vitro and in vivo” (Eur J Med Chem, 2024).
